Each block holds one compound with its values, some of them ahead of it. Activity calls are given as the source filed them. The calls are words filed in the database; no cut-off is given here.
Legend:
[1] = target: T1, Gamma-aminobutyric acid receptor subunit alpha-1/beta-3/gamma-2 (Mus musculus, UniProt P22723+P62812+P63080); test: Negative allosteric modulation of recombinant mouse alpha1beta3gamma2 GABAA receptor expressed in GFP tagged HEK293 cells at peak current by whole-cell voltage clamp electrophysiological analysis; type: cell-based
[2] = target: T1, Gamma-aminobutyric acid receptor subunit alpha-1/beta-3/gamma-2; test: Negative allosteric modulation of recombinant mouse alpha1beta3gamma2 GABAA receptor expressed in GFP tagged HEK293 cells at steady state current by whole-cell voltage clamp electrophysiological analysis; type: cell-based
[3] = target: T2, Gamma-aminobutyric acid receptor subunit alpha-1/beta-3/gamma-2 (Mus musculus) (UniProt P22723+P62812+P63080); test: Negative allosteric modulation of recombinant mouse alpha1beta3gamma2 GABAA receptor expressed in GFP tagged HEK293 cells at 100 uM by whole-cell voltage clamp electrophysiological analysis; type: cell-based; details: filed as negative allosteric modulator
[4] = target: T2, Gamma-aminobutyric acid receptor subunit alpha-1/beta-3/gamma-2 (Mus musculus); test: Positive allosteric modulation of recombinant mouse alpha1beta3gamma2 GABAA receptor expressed in GFP tagged HEK293 cells assessed as maximum GABA current at 100 uM by whole-cell voltage clamp electrophysiological analysis; type: cell-based; details: filed as positive allosteric modulator
[5] = Solubility of the compound at 100 uM; type: physicochemical
[6] = target: T2, Gamma-aminobutyric acid receptor subunit alpha-1/beta-3/gamma-2 (Mus musculus); test: Negative allosteric modulation of recombinant mouse alpha1beta3gamma2 GABAA receptor expressed in GFP tagged HEK293 cells at 100 uM by whole-cell voltage clamp electrophysiological analysis relative control; type: cell-based; details: filed as negative allosteric modulator
[7] = target: T3, GABA-A receptor; anion channel (Rattus norvegicus) (UniProt O09028+P15431+P18506+P18508+P19969+P20236+P23574+P23576+P28471+P28473+P30191+P62813+P63079+P63138+Q91ZM7+Q9ES14); test: Positive allosteric modulation of GABAA receptor in Sprague-Dawley rat Hippocampal neuron assessed as prolongation of spontaneous IPSC decay time at 10 uM by whole-cell voltage-clamp electrophysiological analysis; type: cell-based; details: filed as positive allosteric modulator
[8] = target: T3, GABA-A receptor; anion channel (Rattus norvegicus); test: Positive allosteric modulation of GABAA receptor in Sprague-Dawley rat Hippocampal neuron assessed as potentiation of tonic holding current at 30 uM by whole-cell voltage-clamp electrophysiological analysis; type: cell-based; details: filed as positive allosteric modulator
[9] = target: T3, GABA-A receptor; anion channel (Rattus norvegicus); test: Positive allosteric modulation of GABAA receptor in Sprague-Dawley rat Hippocampal neuron assessed as decrease in spontaneous IPSC frequency at 10 uM by whole-cell voltage-clamp electrophysiological analysis; type: cell-based; details: filed as positive allosteric modulator
[10] = tested on: HEK293; test: Positive allosteric modulation of recombinant mouse alpha1 Q241L mutant/beta3/gamma2 GABAA receptor expressed in GFP tagged HEK293 cells by whole-cell voltage clamp electrophysiological analysis; type: cell-based
[11] = target: T3, GABA-A receptor; anion channel (Rattus norvegicus); test: Positive allosteric modulation of GABAA receptor in Sprague-Dawley rat Hippocampal neuron assessed as reduction in spontaneous IPSC amplitude at 10 uM by whole-cell voltage-clamp electrophysiological analysis; type: cell-based; details: filed as positive allosteric modulator
[12] = tested on: HEK293; test: Positive allosteric modulation of recombinant mouse alpha1 Q241L mutant/beta3/gamma2 GABAA receptor expressed in GFP tagged HEK293 cells at 100 uM by whole-cell voltage clamp electrophysiological analysis; type: cell-based
[13] = tested on: HEK293; test: Negative allosteric modulation of recombinant mouse alpha1 Q241L mutant/beta3/gamma2 GABAA receptor expressed in GFP tagged HEK293 cells assessed as inhibition of steady-state level at 100 uM by whole-cell voltage clamp electrophysiological analysis; type: cell-based
[14] = target: T2, Gamma-aminobutyric acid receptor subunit alpha-1/beta-3/gamma-2 (Mus musculus); test: Positive allosteric modulation of recombinant wild type mouse alpha1beta3gamma2 GABAA receptor expressed in GFP tagged HEK293 cells at 100 uM by whole-cell voltage clamp electrophysiological analysis; type: cell-based
[15] = tested on: HEK293; test: Negative allosteric modulation of recombinant mouse alpha1 Q241L mutant/beta3/gamma2 GABAA receptor expressed in GFP tagged HEK293 cells assessed as inhibition of peak current at 100 uM by whole-cell voltage clamp electrophysiological analysis; type: cell-based
[16] = target: T2, Gamma-aminobutyric acid receptor subunit alpha-1/beta-3/gamma-2 (Mus musculus); test: Positive allosteric modulation of recombinant mouse alpha1beta3gamma2 GABAA receptor expressed in GFP tagged HEK293 cells assessed as maximum GABA current by measuring maximum activation at 100 uM by whole-cell voltage clamp electrophysiological analysis relative to control; type: cell-based; details: filed as positive allosteric modulator

T1 sequence (P22723 whole entry): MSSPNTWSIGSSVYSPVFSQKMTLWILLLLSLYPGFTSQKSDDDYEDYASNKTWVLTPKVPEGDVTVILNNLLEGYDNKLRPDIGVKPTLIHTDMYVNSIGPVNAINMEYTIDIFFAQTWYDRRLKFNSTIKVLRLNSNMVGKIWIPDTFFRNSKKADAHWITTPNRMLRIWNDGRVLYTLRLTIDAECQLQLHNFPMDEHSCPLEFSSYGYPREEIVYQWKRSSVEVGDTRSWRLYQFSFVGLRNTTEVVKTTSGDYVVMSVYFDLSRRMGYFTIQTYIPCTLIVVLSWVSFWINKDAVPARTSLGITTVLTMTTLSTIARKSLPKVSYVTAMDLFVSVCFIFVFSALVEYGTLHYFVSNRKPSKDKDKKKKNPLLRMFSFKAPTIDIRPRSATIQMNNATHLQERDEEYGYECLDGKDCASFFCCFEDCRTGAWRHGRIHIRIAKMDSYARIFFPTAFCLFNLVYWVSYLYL
T1 sequence (P62812 whole entry): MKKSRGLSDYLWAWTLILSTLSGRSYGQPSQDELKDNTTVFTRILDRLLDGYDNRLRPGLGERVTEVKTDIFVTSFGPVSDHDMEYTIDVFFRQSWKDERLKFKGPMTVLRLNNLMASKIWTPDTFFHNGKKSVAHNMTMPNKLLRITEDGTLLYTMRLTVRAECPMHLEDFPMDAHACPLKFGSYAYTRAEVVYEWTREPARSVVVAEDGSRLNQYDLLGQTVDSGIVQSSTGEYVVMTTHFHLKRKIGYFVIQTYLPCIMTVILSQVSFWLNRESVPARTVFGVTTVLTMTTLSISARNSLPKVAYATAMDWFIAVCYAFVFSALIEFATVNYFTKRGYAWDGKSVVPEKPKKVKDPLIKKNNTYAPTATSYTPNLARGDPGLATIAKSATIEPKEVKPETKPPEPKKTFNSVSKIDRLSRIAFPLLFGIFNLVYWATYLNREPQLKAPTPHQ
T1 sequence (P63080 whole entry): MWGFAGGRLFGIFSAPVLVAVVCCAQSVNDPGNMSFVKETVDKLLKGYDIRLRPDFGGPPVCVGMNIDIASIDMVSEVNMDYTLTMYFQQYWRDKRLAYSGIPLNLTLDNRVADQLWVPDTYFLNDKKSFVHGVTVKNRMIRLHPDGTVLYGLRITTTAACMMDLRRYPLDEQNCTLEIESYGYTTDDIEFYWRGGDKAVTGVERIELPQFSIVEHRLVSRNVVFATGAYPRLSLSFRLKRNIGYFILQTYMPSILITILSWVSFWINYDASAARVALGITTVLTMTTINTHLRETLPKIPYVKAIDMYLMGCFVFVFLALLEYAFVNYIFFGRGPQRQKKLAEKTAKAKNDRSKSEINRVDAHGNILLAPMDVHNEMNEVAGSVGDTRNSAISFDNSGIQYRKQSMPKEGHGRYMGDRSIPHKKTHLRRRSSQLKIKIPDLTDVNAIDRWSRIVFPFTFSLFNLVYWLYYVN

SMILES: CC(=O)[C@H]1CC[C@H]2[C@@H]3CC=C4C[C@@H](OS(=O)(=O)O)CC[C@]4(C)[C@H]3CC[C@]12C
- IC50 [1]: 292 µM
- IC50 [2]: 3.2 µM

SMILES: C[C@@]12CC/C(=C/CO)C[C@H]1CCc1ccccc12
- Activity [3]: Active
- IC50 [1]: 114 µM
- solubility [5]: soluble
- IC50 [2]: 23 µM

SMILES: O=S(=O)(O)O[C@H]1CC[C@@H](c2ccc3c(c2)CCC3)CC1
- Activity [3]: Active
- IC50 [1]: 190 µM
- Activity [4]: Active
- solubility [5]: soluble
- IC50 [2]: 53 µM

SMILES: CC(=O)c1cccc(C2=CC[C@@]3(C)[C@H](CC[C@@H]3O)C2)c1
- Activity [7]: Active
- Activity [8]: Active
- Activity [9]: Active
- Activity [10]: inactive
- Activity [11]: Active

SMILES: CC(=O)c1cccc(C2=C[C@H]3CC[C@H](O)[C@@]3(C)CC2)c1
- Activity [10]: inactive

SMILES: C[C@@]12CCC(CCOS(=O)(=O)O)C[C@H]1CCc1ccccc12 (mixture of isomers)
- Activity [3]: Active
- Activity [6]: 100%
- IC50 [1]: 15 µM
- solubility [5]: soluble
- Activity [12]: inactive
- IC50 [2]: 12 µM
- Activity [13]: inactive
- Activity [14]: inactive
- Activity [15]: inactive

SMILES: C[C@]12CC[C@H](c3ccccc3)C[C@H]1CC[C@@H]2O (mixture of isomers)
- Activity [3]: Active
- Activity [6]: 100%
- IC50 [1]: 37 µM
- Emax [16]: 43%
- Activity [4]: Active
- solubility [5]: soluble
- IC50 [2]: 20 µM

SMILES: C[C@]12CC[C@@H](c3ccccc3)C[C@H]1CC[C@@H]2OS(=O)(=O)O (mixture of isomers)
- Activity [3]: Active
- IC50 [1]: 76 µM
- Activity [4]: Active
- solubility [5]: soluble
- IC50 [2]: 42 µM

Further compounds by falling IC50 [1], results first:

- Activity [3]: Active
- IC50 [1]: 148 µM
- solubility [5]: soluble
- IC50 [2]: 73 µM
SMILES: O=S(=O)(O)O[C@H]1CC[C@H](c2ccc3c(c2)CCC3)CC1

- Activity [3]: Active
- IC50 [1]: 128 µM
- solubility [5]: soluble
- IC50 [2]: 54 µM
SMILES: C[C@]12CC[C@H](c3ccccc3)C[C@H]1CC[C@@H]2OS(=O)(=O)O (mixture of isomers)

- Activity [3]: Active
- IC50 [1]: 59 µM
- Activity [4]: Active
- solubility [5]: soluble
- IC50 [2]: 14 µM
SMILES: O[C@H]1CC[C@H](c2ccc3c(c2)CCC3)CC1

- Activity [3]: Active
- IC50 [1]: 55 µM
- Activity [4]: Active
- solubility [5]: soluble
- IC50 [2]: 18 µM
SMILES: O[C@H]1CC[C@@H](c2ccc3c(c2)CCC3)CC1

- Activity [3]: Active
- Activity [6]: 100%
- IC50 [1]: 29 µM
- solubility [5]: soluble
- IC50 [2]: 14 µM
- Activity [14]: inactive
SMILES: C[C@@]12CCC(CCO)C[C@H]1CCc1ccccc12 (mixture of isomers)
- Activity [12]: inactive
- Activity [13]: inactive
- Activity ([15]; filed as negative allosteric modulator): Active

- Activity [3]: Active
- Activity [6]: 100%
- IC50 [1]: 27 µM
- Activity [4]: Active
- solubility [5]: soluble
- IC50 [2]: 21 µM
SMILES: C[C@]12CC[C@@H](c3ccccc3)C[C@H]1CC[C@@H]2O (relative stereo)

- Activity [3]: Active
- Activity [6]: 100%
- IC50 [1]: 10 µM
- Activity [4]: Active
- solubility [5]: soluble
- IC50 [2]: 10 µM
SMILES: C[C@]12CC[C@H](OS(=O)(=O)O)CC1=CCc1cc(Br)ccc12

Source: ChEMBL document CHEMBL6153055, “Design, Synthesis, and Pharmacological Evaluation of Nonsteroidal Tricyclic Ligands as Modulators of GABAA Receptors” (J Med Chem, 2025)
